Values after ≈ are worked out from the molar mass of the structure shown. Read-outs that look alike come from different tables or passages of the source.
Key:
[1] = system: Mycobacterium tuberculosis; settings: Hwang et al., J. Nat. Prod. 76: 1916-1922 (2013); cited from earlier work
[2] = system: Flu A (H3N2) Wisconsin/67/2005; experiment: microbe, parasite or virus in culture; format: cell-based, Influenza A; settings: for Cntrl SI: Ribavirin control, Flu A (H3N2)
[3] = system: Flu A (H5N1) Vietnam/1203/2004H; experiment: microbe, parasite or virus in culture; format: cell-based, Influenza A
in vitro = settings: dog
Flu B Shanghai/361/02 = experiment: Influenza B antiviral assay in MDCK cells (BioShield, NIH contract labs); format: cell-based; settings: for EC50: Influenza B virus, read-out: Cntrl EC50; for EC50 / Cntrl SI: Ribavirin control, Flu B
Text: Following the Project BioShield Act of 2004, Fungi Perfecti, LLC submitted over 200 hot water fruitbody and aqueous ethanolic extracts of the in vitro grown mycelia of mushroom species and strains within to the BioShield BioDefense Program administered by the U.S. Army Medical Research Institute of Infectious Diseases ([…]) and the National Institutes of Health (NIH). Submitted samples were screened for antiviral activity coordinated through the Southern Research Institute (SRI). From the more than 200 samples the inventor provided to BioShield, 2,392 antiviral assays were performed on behalf of the inventor; 1,042 of which were influenza tests.
The protocols for determining antiviral activity are fully described by the National Institutes of Allergy and Infectious Diseases (NIAID) by Greenstone et al., NIAID resources for developing new therapies for severe viral infections, Antiviral Res., Volume 78, Issue 1, April 2008, Pages 51-59, hereby incorporated by reference in its entirety. The influenza bioassays were conducted according to Sidwell, R W and Smee, D F, In vitro and in vivo assay systems for study of influenza virus inhibitors, Antiviral Res., October 2000, 48(1):1-16., hereby incorporated by reference in its entirety.

[4] = system: laccase activity of Trametes sp. 1-62; settings: Terron et al. 2004; cited from earlier work
Ebola = format: cell-based, Ebola virus; settings: SI50 = CC50/EC50
Polio = format: cell-based, poliovirus; settings: Polio primary, SI50 = CC50/EC50
Human papillomavirus 11 = format: cell-based, human papillomavirus (HPV)
HSV-1 = experiment: microbe, parasite or virus in culture; format: cell-based, Herpes Simplex; settings: Human alphaherpesvirus 1, HFF, read-out: Cntrl EC50
[5] = within the human body; cited from earlier work
[6] = oral ingestion; cited from earlier work
Norovirus = format: cell-based, norovirus (Norwalk); set-up: unit not given beside the values

**Q.** With CCOC(=O)c1c(-c2ccccc2)c2ccc(Cl)cc2oc1=O [Ethyl 7-chloro-2-oxo-4-phenyl-2H-chromen-3-carboxylate] as the molecule, how does the “activity against Mycobacterium tuberculosis” value [1] read?
**A.** The value was “active”.

**Q.** For NC(=O)c1ncn([C@@H]2O[C@H](CO)[C@@H](O)[C@H]2O)n1 [Ribavirin], which EC50 ([2]; Influenza A virus, H3N2, MDCK, read-out: Cntrl EC50) is on record?
**A.** The EC50 was 2 µg/mL (≈ 8.19 µM).

**Q.** And the “Cntrl SI” value ([2]; Neutral Red)?
**A.** The value was greater than 160.

**Q.** What about the “Cntrl SI” value ([2]; Visual) of the same molecule?
**A.** Its value is greater than 170.

**Q.** What about the EC50 ([3]; Influenza A virus, H5N1, MDCK, read-out: Cntrl EC50, Ribavirin control, Neutral Red) of the same molecule?
**A.** The EC50 was 12 µg/mL (≈ 49.1 µM).

**Q.** And the “Cntrl SI” value ([3]; Ribavirin control, Neutral Red)?
**A.** Its value is greater than 27.

**Q.** What about the IC50 (in vitro) of the same molecule?
**A.** The IC50 was greater than 320 µg/mL.

**Q.** And the EC50 (Flu B Shanghai/361/02; MDCK, Neutral Red)?
**A.** The EC50 was 7.1 µg/mL (≈ 29.1 µM).

**Q.** And the EC50 (Flu B Shanghai/361/02; MDCK, Visual-CONF)?
**A.** Its EC50 is 1.7 µg/mL (≈ 6.96 µM).

**Q.** What about the EC50 (Flu B Shanghai/361/02; MDCK, Visual) of the same molecule?
**A.** The EC50 was 1.7 µg/mL (≈ 6.96 µM).

**Q.** And the EC90 (Flu B Shanghai/361/02; MDCK, read-out: Cntrl EC90)?
**A.** Its EC90 is 37.7 µg/mL (≈ 154 µM).

**Q.** And the “Cntrl SI” value (Flu B Shanghai/361/02; Neutral Red)?
**A.** The value was greater than 45.

**Q.** And the “Cntrl SI” value (Flu B Shanghai/361/02; Visual)?
**A.** The value was greater than 190.

**Q.** What about the “Cntrl SI” value (Flu B Shanghai/361/02; Visual-CONF) of the same molecule?
**A.** The value was greater than 190.

**Q.** For O=C(O)/C=C/c1ccc(O)cc1 [p-coumaric acid], which “increase in laccase activity” value [4] is on record?
**A.** The value was 273 fold.

**Q.** Which results are given for CC(=O)/C=C(O)\C=C\c1ccc(O)c(O)c1 [Hispolon]?
**A.** activity against Mycobacterium tuberculosis [1]: active; SI50 (Ebola): > 5.3

**Q.** Which results are given for O=c1cc(-c2ccccc2)oc2cc(O)cc(O)c12 [Chrysin]?
**A.** SI50 (Polio): Polio primary: SI50 > 15 (Control pirodavir SI50 > 22); SI50 (Polio; listed as chrysin): > 15

**Q.** Which SI90 (Human papillomavirus 11) does the source give for C[C@@H]1O[C@@H](OC[C@H]2O[C@@H](Oc3c(-c4ccc(O)c(O)c4)oc4cc(O)cc(O)c4c3=O)[C@H](O)[C@@H](O)[C@@H]2O)[C@H](O)[C@H](O)[C@H]1O.O [Rutin hydrate] here?
**A.** The SI90 was “Human papillomavirus 11 primary: SI50 > 109 (Control cidofovir SI50 = 12), SI90 = 5 (Control cidofovir SI90 = 1)”.

**Q.** Which SI50 (Ebola) does the source give for NC(=O)c1nc(F)c[nH]c1=O [favipiravir] here?
**A.** Its SI50 is greater than 10.

**Q.** For Nc1nc2c(ncn2COCCO)c(=O)[nH]1 [acyclovir], which EC50 (HSV-1) is on record?
**A.** Its EC50 is 0.3 µg/mL (≈ 1.33 µM).

**Q.** Which “share of vanillin metabolized into vanillic acid” value [5] does the source give for COc1cc(C=O)ccc1O [vanillin] here?
**A.** The value was “up to 95%”.

**Q.** For COc1ccccc1O [guaiacol], which “increase in laccase activity” value [4] is on record?
**A.** Its value is 73 fold.

**Q.** Which “time remaining in the blood stream post-digestion” value [6] does the source give for COc1cc(C(=O)O)ccc1O [Vanillic acid] here?
**A.** The value was “more than 11 hours”.

**Q.** And the SI50 (Norovirus)?
**A.** The SI50 was 1.

**Q.** And the SI90 (Norovirus)?
**A.** The SI90 was 1.
